Source: paper PMC5740381 (Antimicrobial Agents and Chemotherapy, 2017)
Where two headings read alike, the source gives them in different places.

What was measured:
Type in all cases: cell-based, Hepatitis C virus
[1] = test system: HCV subgenomic stable replicon GT4a; assay: Stable HCV replicon luciferase assay in Huh-7 cells; conditions: read-out: Mean EC50 ± SD
Excerpt: (§1) . Five of these nine cell lines have been described previously, including those transfected with genotypes 1a H77, 1b Con1, 3a, 4a, and 6a ([28]). The other four cell lines were established by transfecting cells with a nonchimeric genotype 2a JFH-1 replicon (GenBank accession number AB047639), two genotype 2a JFH-1 chimeric replicons containing either a genotype 2b NS3 protease domain (N-terminal 251 amino acids) or a sequence encoding full-length NS3 through the first 39 amino acids of NS5B from genotype 5a (strain SA13), and one chimeric replicon with a genotype 1b Con1 backbone containing full-length NS3 and NS4A sequences from genotype 6e. The genotype 2b and 6e NS3 sequences were each synthetically constructed based on a consensus sequence derived from the alignment of 15 genotype 2b and 4 genotype 6e sequences, respectively. All replicon constructs were bicistronic subgenomic replicons similar to those described by Bartenschlager and coworkers, and the replicon cell lines were generated by introducing these constructs into cells of an Huh-7 human hepatoma-derived cell line ([50]). The inhibitory effect of the PIs on HCV replication in replicon cells was determined in Dulbecco's modified Eagle medium containing 5% fetal bovine serum with or without 40% human plasma (Bioreclamation, Westbury, NY). The EC50s were determined using nonlinear regression curve fitting as described previously ([33]).

[2] = test system: HCV subgenomic stable replicon GT6a; assay: as above; conditions: read-out: Mean EC50 ± SD
Excerpt: as §1

[3] = test system: HCV subgenomic stable replicon GT3a; assay: microbe, parasite or virus in culture; conditions: read-out: Mean EC50 ± SD
Excerpt: (§2) Five of these nine cell lines have been described previously, including those transfected with genotypes 1a H77, 1b Con1, 3a, 4a, and 6a ([28]). […] The genotype 2b and 6e NS3 sequences were each synthetically constructed based on a consensus sequence derived from the alignment of 15 genotype 2b and 4 genotype 6e sequences, respectively. All replicon constructs were bicistronic subgenomic replicons similar to those described by Bartenschlager and coworkers, and the replicon cell lines were generated by introducing these constructs into cells of an Huh-7 human hepatoma-derived cell line ([50]). The inhibitory effect of the PIs on HCV replication in replicon cells was determined in Dulbecco's modified Eagle medium containing 5% fetal bovine serum with or without 40% human plasma (Bioreclamation, Westbury, NY). The EC50s were determined using nonlinear regression curve fitting as described previously ([33]).

HCV genotype 2b replicon = assay: Transient replicon assay with engineered substitutions
Protocol: (§3) Mutagenesis was performed using a Change-IT multiple-mutation site-directed mutagenesis kit (USB, Cleveland, OH) or by cloning a synthesized DNA fragment encoding the amino acid substitution(s). The genotype 1a and 1b replicon shuttle vectors used for the introduction of the substitutions of interest in the NS3, NS5A, or NS5B gene for transient-transfection assays have been described previously ([28], [33]). The replicon shuttle vectors used for the introduction of substitutions in NS3 genes from other genotypes were similar to the stable replicon cell line constructs described above, except for the absence of the neo gene. After mutagenesis, the plasmids were linearized and RNA was transcribed and then used to transfect Huh-7 cells. Inhibition of HCV replication by the HCV inhibitors was measured by luciferase assay, as described above. Replication efficiency was calculated as a percentage of wild-type replication, as described previously ([28]).

HCV genotype 3a replicon = assay: as above
Protocol: as §3

HCV genotype 4a replicon = assay: as above
Protocol: as §3

HCV genotype 4d replicon = assay: as above
Protocol: as §3

HCV genotype 6a replicon = assay: as above
Protocol: as §3

[4] = test system: HCV subgenomic stable replicon GT6e; assay: microbe, parasite or virus in culture; conditions: 0% human plasma, read-out: Mean EC50 ± SD
Excerpt: as §2

HCV genotype 1a replicon = assay: Transient replicon assay with engineered substitutions; conditions: read-out: Mean EC50 ± SD
Protocol: as §3

HCV genotype 1b replicon = assay: as above; conditions: read-out: Mean EC50 ± SD
Protocol: as §3

HCV genotype 2a replicon = assay: as above; conditions: read-out: Mean EC50 ± SD
Protocol: as §3

HCV genotype 5a replicon = assay: as above; conditions: 5a wild type, transient transfection; read-out: Mean EC50 ± SD
Protocol: as §3

[5] = Hepatitis C virus, Huh-7, 0% human plasma

With `CC(C)(C)[C@@H]1NC(=O)O[C@@H]2CCC[C@H]2OC/C=C/C(F)(F)c2nc3ccccc3nc2O[C@@H]2C[C@@H](C(=O)N[C@]3(C(=O)NS(=O)(=O)C4(C)CC4)C[C@H]3C(F)F)N(C2)C1=O` [Glecaprevir, (3aR,7S,10S,12R,21E,24aR)-7-tert-butyl-N-[(1R,2R)-2-(difluoromethyl)-1-{[(1-methylcyclopropyl)sulfonyl]carbamoyl}cyclopropyl]-20,20-difluoro-5,8-dioxo-2,3,3a,5,6,7,8,11,12,20,23,24a-dodecahydro-1H,10H-9,12-methanocyclopenta[18,19][1,10,17,3,6]trioxadiazacyclononadecino[11,12-b]quinoxaline-10-carboxamide] the EC50 [1, 5] was 2.8 ± 0.41 nM, the EC50 [2, 5] was 0.86 ± 0.11 nM and the EC50 [3, 5] was 1.9 ± 0.62 nM. The EC50 (HCV genotype 2b replicon; Hepatitis C virus, read-out: Mean EC50 ± SD, 2b NS3 A156T) was 460 ± 172 nM, the EC50 (HCV genotype 2b replicon; Hepatitis C virus, read-out: Mean EC50 ± SD, 2b NS3 A156V) was 4510 nM and the EC50 (HCV genotype 2b replicon; Hepatitis C virus, read-out: Mean EC50 ± SD, 2b NS3 D168A) was 3.9 ± 1 nM. It also gave an EC50 (HCV genotype 2b replicon; Hepatitis C virus, read-out: Mean EC50 ± SD, 2b NS3 D168E) of 6.6 ± 1.8 nM, an EC50 (HCV genotype 2b replicon; Hepatitis C virus, read-out: Mean EC50 ± SD, 2b NS3 D168V) of 9.1 ± 1.2 nM and an EC50 (HCV genotype 2b replicon; Hepatitis C virus, read-out: Mean EC50 ± SD, 2b wild type, transient transfection) of 3.1 nM. It also gave an EC50 (HCV genotype 3a replicon; Hepatitis C virus, read-out: Mean EC50 ± SD, 3a NS3 A156G) of 909 ± 349 nM, an EC50 (HCV genotype 3a replicon; Hepatitis C virus, read-out: Mean EC50 ± SD, 3a NS3 Q168R) of 30 ± 10 nM and an EC50 (HCV genotype 3a replicon; Hepatitis C virus, read-out: Mean EC50 ± SD, 3a wild type, transient transfection) of 0.55 nM. For the same compound, the EC50 (HCV genotype 4a replicon; Hepatitis C virus, read-out: Mean EC50 ± SD, 4a NS3 A156T) was 962 ± 374 nM, the EC50 (HCV genotype 4a replicon; Hepatitis C virus, read-out: Mean EC50 ± SD, 4a NS3 A156V) was 2080 nM and the EC50 (HCV genotype 4a replicon; Hepatitis C virus, read-out: Mean EC50 ± SD, 4a NS3 D168H) was 15 ± 6.1 nM. It also gave an EC50 (HCV genotype 4a replicon; Hepatitis C virus, read-out: Mean EC50 ± SD, 4a NS3 D168V) of 6.5 ± 3 nM, an EC50 (HCV genotype 4a replicon; Hepatitis C virus, read-out: Mean EC50 ± SD, 4a NS3 R155C) of 1.7 ± 0.47 nM and an EC50 (HCV genotype 4a replicon; Hepatitis C virus, read-out: Mean EC50 ± SD, 4a wild type, transient transfection) of 0.67 nM. The EC50 (HCV genotype 4d replicon; Hepatitis C virus, 96 h, read-out: Mean EC50 ± SD, 4d wild type, transient transfection) was 0.15 ± 0.04 nM, the EC50 (HCV genotype 6a replicon; Hepatitis C virus, read-out: Mean EC50 ± SD, 6a NS3 D168A) was 12 ± 5.8 nM and the EC50 (HCV genotype 6a replicon; Hepatitis C virus, read-out: Mean EC50 ± SD, 6a NS3 D168H) was 22 ± 5.7 nM. For the same compound, the EC50 (HCV genotype 6a replicon; Hepatitis C virus, read-out: Mean EC50 ± SD, 6a NS3 D168V) was 5.8 ± 2.2 nM and the EC50 (HCV genotype 6a replicon; Hepatitis C virus, read-out: Mean EC50 ± SD, 6a wild type, transient transfection) was 0.15 nM.
For `C=C[C@@H]1C[C@]1(NC(=O)[C@@H]1C[C@@H]2CN1C(=O)[C@H](C(C)(C)C)NC(=O)O[C@@H]1C[C@H]1CCCCCc1nc3ccc(OC)cc3nc1O2)C(=O)NS(=O)(=O)C1CC1` [Grazoprevir], the EC50 ([1]; 0% human plasma) was 1.2 ± 0.31 nM, the EC50 ([2]; 0% human plasma) was 0.89 ± 0.32 nM and the EC50 ([3]; 0% human plasma) was 83 ± 18 nM. For the same compound, the EC50 [4] was 0.25 ± 0.01 nM, the EC50 (HCV genotype 1a replicon; 1a NS3 A156T) was 92 ± 6 nM and the EC50 (HCV genotype 1a replicon; 1a NS3 D168E) was 4.6 ± 0.66 nM. It also gave an EC50 (HCV genotype 1a replicon; 1a NS3 D168V) of 30 ± 13 nM, an EC50 (HCV genotype 1a replicon; 1a NS3 F43L) of 0.19 ± 0.05 nM and an EC50 (HCV genotype 1a replicon; 1a NS3 Q80K) of 0.25 ± 0.09 nM. The EC50 (HCV genotype 1a replicon; 1a NS3 R155K) was 0.59 ± 0.19 nM, the EC50 (HCV genotype 1a replicon; 1a NS3 V36M) was 0.27 ± 0.06 nM and the EC50 (HCV genotype 1a replicon; 1a NS3 V55I) was 0.1 ± 0.02 nM. The EC50 (HCV genotype 1a replicon; 1a NS3 Y56H) was 2.2 ± 0.73 nM, the EC50 (HCV genotype 1a replicon; 1a wild type, transient transfection) was 0.14 ± 0.06 nM and the EC50 (HCV genotype 1b replicon; 1b NS3 A156T) was 39 ± 4.3 nM. It also gave an EC50 (HCV genotype 1b replicon; 1b NS3 A156V) of 68 ± 8.2 nM, an EC50 (HCV genotype 1b replicon; 1b NS3 D168A) of 8.5 ± 0.37 nM and an EC50 (HCV genotype 1b replicon; 1b NS3 D168E) of 0.78 ± 0.05 nM. The EC50 (HCV genotype 1b replicon; 1b NS3 D168V) was 4.1 ± 0.11 nM, the EC50 (HCV genotype 1b replicon; 1b wild type, transient transfection) was 0.19 ± 0.05 nM and the EC50 (HCV genotype 2a replicon; 2a NS3 A156T) was 1150 nM. For the same compound, the EC50 (HCV genotype 2a replicon; 2a NS3 A156V) was 1960 nM, the EC50 (HCV genotype 2a replicon; 2a NS3 D168A) was 139 ± 9.4 nM and the EC50 (HCV genotype 2a replicon; 2a NS3 D168E) was 62 ± 10 nM. The EC50 (HCV genotype 2a replicon; 2a NS3 D168V) was 24 ± 0.94 nM, the EC50 (HCV genotype 2a replicon; 2a wild type, transient transfection) was 10.5 ± 1.4 nM and the EC50 (HCV genotype 2b replicon; 2b NS3 A156T, read-out: Mean EC50 ± SD) was 1560 nM. The EC50 (HCV genotype 2b replicon; 2b NS3 A156V, read-out: Mean EC50 ± SD) was 2890 nM, the EC50 (HCV genotype 2b replicon; 2b NS3 D168A, read-out: Mean EC50 ± SD) was 347 ± 113 nM and the EC50 (HCV genotype 2b replicon; 2b NS3 D168E, read-out: Mean EC50 ± SD) was 35 ± 6 nM. It also gave an EC50 (HCV genotype 2b replicon; 2b NS3 D168V, read-out: Mean EC50 ± SD) of 88 ± 19 nM, an EC50 (HCV genotype 2b replicon; 2b wild type, transient transfection, read-out: Mean EC50 ± SD) of 6.1 ± 1.3 nM and an EC50 (HCV genotype 3a replicon; 3a NS3 A156G, read-out: Mean EC50 ± SD) of 614 ± 148 nM. For the same compound, the EC50 (HCV genotype 3a replicon; 3a NS3 Q168R, read-out: Mean EC50 ± SD) was 165 ± 46 nM, the EC50 (HCV genotype 3a replicon; 3a wild type, transient transfection, read-out: Mean EC50 ± SD) was 47 ± 14 nM and the EC50 (HCV genotype 4a replicon; 4a NS3 A156T, read-out: Mean EC50 ± SD) was 296 ± 22 nM. The EC50 (HCV genotype 4a replicon; 4a NS3 A156V, read-out: Mean EC50 ± SD) was 169 ± 27 nM, the EC50 (HCV genotype 4a replicon; 4a NS3 D168H, read-out: Mean EC50 ± SD) was 25 ± 6.3 nM and the EC50 (HCV genotype 4a replicon; 4a NS3 D168V, read-out: Mean EC50 ± SD) was 13 ± 1.1 nM. For the same compound, the EC50 (HCV genotype 4a replicon; 4a NS3 R155C, read-out: Mean EC50 ± SD) was 2 ± 0.27 nM, the EC50 (HCV genotype 4a replicon; 4a wild type, transient transfection, read-out: Mean EC50 ± SD) was 0.28 ± 0.04 nM and the EC50 (HCV genotype 4d replicon; 4d NS3 D168V, read-out: Mean EC50 ± SD) was 2.5 ± 0.08 nM. The EC50 (HCV genotype 4d replicon; 4d wild type, transient transfection, read-out: Mean EC50 ± SD) was 0.18 ± 0.01 nM, the EC50 (HCV genotype 5a replicon) was 0.06 ± 0.02 nM and the EC50 (HCV genotype 6a replicon; 6a NS3 D168A, read-out: Mean EC50 ± SD) was 103 ± 34 nM. It also gave an EC50 (HCV genotype 6a replicon; 6a NS3 D168H, read-out: Mean EC50 ± SD) of 45 ± 4.1 nM, an EC50 (HCV genotype 6a replicon; 6a NS3 D168V, read-out: Mean EC50 ± SD) of 24 ± 1.2 nM and an EC50 (HCV genotype 6a replicon; 6a wild type, transient transfection, read-out: Mean EC50 ± SD) of 0.1 ± 0.02 nM.
